Results on three compounds are retold here after patent EP3898610B1, “NOVEL AZA-HEXAPHENE ANTIBIOTIC COMPOUNDS” (Fondazione Istituto Insubrico di Ricerca per la Vita, priority 2018, dated 2020).

The structures appear in SMILES notation. Values after ≈ are worked out from the molar mass of the structure shown.

What all share (assay type): cell-based
The subject of assay [1] is L4187 E. faecium VanA - Lnz R - Cpx R. The assay is described as follows: microbe, parasite or virus in culture. To be noted: Enterococcus faecium. The protocol: (§1) Antibacterial activity. […] Each bacterial strain was inoculated with 2-5×10^5 CFU/ml, Candida albicans with 10^4 CFU/ml. Cultures were incubated at 35°C in air. After 18-24 hours visual readings were performed and MICs (Minimal Inhibitory Concentrations) determined. The effect of 30% bovine serum was determined under the same experimental conditions. The strains used were clinical isolates or strains from American Type Culture Collection (ATCC).

Assay [2] concerns VA80201 S. aureus CA-MRSA. Briefly: MIC, broth microdilution (CLSI). Conditions: Staphylococcus aureus, MRSA. As for the experimental part: as §1
Another assay concerns L569 E. faecium VanA. The assay is described as follows: MIC, broth microdilution (CLSI). The protocol: as §1
A general note: In broth dilution the organism is exposed to a series of concentrations in liquid medium.

Another assay relates to L1577 S. epidermidis. Briefly: MIC, broth microdilution (CLSI). Conditions: Staphylococcus epidermidis. As for the experimental part: as §1
For another assay, the system named is L49 S. pyogenes C203. Briefly: MIC, broth microdilution (CLSI). Conditions: Streptococcus pyogenes. The protocol:
as §1

A further assay deals with L47 E. coli. Briefly: MIC, broth microdilution (CLSI). Conditions: Escherichia coli. As for the experimental part: as §1
The subject of the next assay is L819 S. aureus Smith. Briefly: MIC, broth microdilution (CLSI). To be noted: Staphylococcus aureus. The protocol: as §1
In the next assay the test system is L568 E. faecium. Briefly: MIC, broth microdilution (CLSI). Conditions: Enterococcus faecium. The protocol: as §1
Assay [3] relates to L4061 S. aureus MRSA - GISA. Briefly: MIC, broth microdilution (CLSI). To be noted: Staphylococcus aureus, MRSA. As for the experimental part: as §1
In assay [4] the test system is L1729 S. haemolyticus MDR. Briefly: MIC, broth microdilution (CLSI). Conditions: Staphylococcus haemolyticus. As for the experimental part: as §1
The next assay has as its system L3294 M. catarrhalis. Briefly: MIC, broth microdilution (CLSI). To be noted: Moraxella catarrhalis. The protocol: as §1
The subject of the next assay is L559 E. faecalis. Briefly: MIC, broth microdilution (CLSI). Conditions: Enterococcus faecalis. The protocol: as §1
The test system of another assay is L1730 S. haemolyticus. Briefly: MIC, broth microdilution (CLSI). As for the experimental part:
as §1

The next assay deals with L1400 S. aureus HA-MRSA. Briefly: MIC, broth microdilution (CLSI). To be noted: Staphylococcus aureus, MRSA. The protocol: as §1
The next assay relates to L560 E. faecalis VanA. The assay is described as follows: MIC, broth microdilution (CLSI). Conditions: Enterococcus faecalis. As for the experimental part:
as §1

For a further assay, the system named is L100 S. aureus ATCC6538P. The assay is described as follows: MIC, broth microdilution (CLSI). Conditions: Staphylococcus aureus, ATCC6538P. The protocol: as §1
A further assay relates to L44 S. pneumoniae. Briefly: MIC, broth microdilution (CLSI). Conditions: Streptococcus pneumoniae. The protocol: as §1
Assay [5] relates to VA8101 S. agalactiae (Group B). The assay is described as follows: MIC, broth microdilution (CLSI). Conditions: Streptococcus agalactiae. The protocol: as §1
For the next assay, the system named is L145 C. albicans. Briefly: MIC, broth microdilution (CLSI). Conditions: Candida albicans. As for the experimental part:
Antibacterial activity. The antimicrobial activity of the antibiotic 103/33-F710 was determined by the broth microdilution method according to the procedures published by the Clinical and Laboratory Standards Institute (CLSI), formerly the National Committee for Clinical Laboratory Standards (NCCLS) (document M07-A9). Microorganisms were grown in either cation-adjusted Mueller Hinton Broth (Staphylococci, Enterococci, Moraxella catarrhalis, Escherichia coli), Todd Hewitt medium (Streptococci) or RPMI 1640 medium for Candida albicans on 96-well microtiter plates. Each bacterial strain was inoculated with 2-5×10^5 CFU/ml, Candida albicans with 10^4 CFU/ml. Cultures were incubated at 35°C in air. After 18-24 hours visual readings were performed and MICs (Minimal Inhibitory Concentrations) determined. The effect of 30% bovine serum was determined under the same experimental conditions. The strains used were clinical isolates or strains from American Type Culture Collection (ATCC). The antibiotic 103/33-F710 was dissolved in DMSO to obtain a 1000 µg/ml stock solution, and subsequently diluted in water to obtain working solution. Table 5: Antimicrobial activity reported as MIC (µg/ml) of ID103/33-F710
Antibacterial activity. The antimicrobial activity of the antibiotic 103/33-F696 was determined by the broth microdilution method according to the procedures disclosed in Example 7. Table 6: Antimicrobial activity reported as MIC (µg/ml) of compound 2 (103/33-F696)
Antibacterial activity. The antimicrobial activity of the antibiotic 103/33-F712 was determined by the broth microdilution method according to the procedures disclosed in Example 7. Table 7: Antimicrobial activity reported as MIC (µg/ml) of ID103/33-F712

For `CN[C@H](CC(C)C)C(=O)N[C@H]1C(=O)N[C@@H](CC(N)=O)C(=O)N[C@H]2C(=O)N[C@H]3C(=O)N[C@H](C(=O)N[C@H](C(=O)O)c4cc(O)cc(O)c4-c4cc3ccc4O)[C@H](O)c3ccc(c(Cl)c3)Oc3cc2cc(c3O[C@@H]2O[C@H](CO)[C@@H](O)[C@H](O)[C@H]2O[C@H]2C[C@](C)(N)[C@H](O)[C@H](C)O2)Oc2ccc(cc2Cl)[C@H]1O` [Vancomycin, reference compound], the MIC in assay [1] is greater than 128 µg/mL; in [2], 1 µg/mL (≈ 0.69 µM); against L569 E. faecium VanA (Enterococcus faecium), greater than 128 µg/mL; in the assay on L569 E. faecium VanA (L569 E. faecium VanA 30 % SB (30% bovine serum)) it was greater than 128 µg/mL; against L1577 S. epidermidis it was 1 µg/mL (≈ 0.69 µM); in the assay with L49 S. pyogenes C203 it was 0.5 µg/mL (≈ 0.345 µM). Also, the MIC against L47 E. coli was greater than 128 µg/mL; in the assay with L819 S. aureus Smith, 1 µg/mL (≈ 0.69 µM); against L568 E. faecium, 2 µg/mL (≈ 1.38 µM); in [3] it was 4 µg/mL (≈ 2.76 µM); in assay [4] it was 2 µg/mL (≈ 1.38 µM); in the assay with L3294 M. catarrhalis, 16 µg/mL (≈ 11 µM). Further, the MIC is 0.5 µg/mL (≈ 0.345 µM) with L559 E. faecalis; 0.5 µg/mL (≈ 0.345 µM) against L1730 S. haemolyticus (L1730 S. haemolyticus, cation-adjusted Mueller Hinton Broth, 35°C, 18-24 hours); 1 µg/mL (≈ 0.69 µM) in the assay with L1730 S. haemolyticus (Staphylococcus haemolyticus, L1730 S. haemolyticus, cation-adjusted Mueller Hinton Broth, 35°C, 18-24 hours); 1 µg/mL (≈ 0.69 µM) against L1400 S. aureus HA-MRSA; greater than 128 µg/mL against L560 E. faecalis VanA; 1 µg/mL (≈ 0.69 µM) with L100 S. aureus ATCC6538P. Besides, the MIC (in the assay with L44 S. pneumoniae; in assay [5]) was 0.5 µg/mL (≈ 0.345 µM) throughout.

`C[C@@H]1[C@H](O)[C@@H](C)/C=C/C=C/C=C/C=C/C=C/C=C/C=C/[C@H](O[C@@H]2O[C@H](C)[C@@H](O)[C@H](N)[C@@H]2O)C[C@@H]2O[C@](O)(C[C@@H](O)C[C@@H](O)[C@H](O)CC[C@@H](O)C[C@@H](O)CC(=O)O[C@H]1C)C[C@H](O)[C@H]2C(=O)O` [amphotericin B, reference compound]: the MIC in the assay on L145 C. albicans came out at 0.5 µg/mL (≈ 0.541 µM).

Regarding `COc1c(OC)c2c(=O)c3cc(C)n(C(CC4CN(C)C(=N)N4)C(=O)O)c(=O)c3c(=O)c2c2cc3c(=O)c4cc(O)cc(O)c4c(=O)c3c(O)c12` (stereo not drawn) [compound 2, 2-(8,10,12-Trihydroxy-6,7-dimethoxy-3-methyl-1,5,9,14,16-pentaoxo-5,9,14,16-tetrahydro-1H-2-aza-hexaphen-2-yl)-3-(2-imino-1-methyl-imidazolidin-4-yl)-propionic acid], the MIC is greater than 512 µg/mL in the assay on L145 C. albicans; 0.5 µg/mL (≈ 0.718 µM) in the assay on L569 E. faecium VanA (Enterococcus faecium); 0.03 µg/mL (≈ 0.0431 µM) in the assay with L1577 S. epidermidis; 1 µg/mL (≈ 1.44 µM) with L49 S. pyogenes C203; greater than 512 µg/mL against L47 E. coli; 0.015 µg/mL (≈ 0.0215 µM) against L819 S. aureus Smith. In addition, the MIC against L568 E. faecium was 0.125 µg/mL (≈ 0.179 µM); in [4], 0.06 µg/mL (≈ 0.0861 µM); in the assay on L3294 M. catarrhalis, 64 µg/mL (≈ 91.9 µM); with L559 E. faecalis, 0.03 µg/mL (≈ 0.0431 µM); in the assay with L1730 S. haemolyticus (Staphylococcus haemolyticus), 0.03 µg/mL (≈ 0.0431 µM); against L1400 S. aureus HA-MRSA, 0.03 µg/mL (≈ 0.0431 µM). The MIC was 0.03 µg/mL (≈ 0.0431 µM) in the assay on L560 E. faecalis VanA, 0.03 µg/mL (≈ 0.0431 µM) in the assay with L100 S. aureus ATCC6538P and 32 µg/mL (≈ 45.9 µM) in the assay on L44 S. pneumoniae.
